Experimental data reported in patent US12187723B2 (BRISTOL-MYERS SQUIBB COMPANY, priority 2019, dated 2025).

Biological target: T1, human TLR9 (Homo sapiens, UniProt Q9NR96)
T1 construct: host or cells: HEK-Blue cells
T1 sequence (Q9NR96 26-1032): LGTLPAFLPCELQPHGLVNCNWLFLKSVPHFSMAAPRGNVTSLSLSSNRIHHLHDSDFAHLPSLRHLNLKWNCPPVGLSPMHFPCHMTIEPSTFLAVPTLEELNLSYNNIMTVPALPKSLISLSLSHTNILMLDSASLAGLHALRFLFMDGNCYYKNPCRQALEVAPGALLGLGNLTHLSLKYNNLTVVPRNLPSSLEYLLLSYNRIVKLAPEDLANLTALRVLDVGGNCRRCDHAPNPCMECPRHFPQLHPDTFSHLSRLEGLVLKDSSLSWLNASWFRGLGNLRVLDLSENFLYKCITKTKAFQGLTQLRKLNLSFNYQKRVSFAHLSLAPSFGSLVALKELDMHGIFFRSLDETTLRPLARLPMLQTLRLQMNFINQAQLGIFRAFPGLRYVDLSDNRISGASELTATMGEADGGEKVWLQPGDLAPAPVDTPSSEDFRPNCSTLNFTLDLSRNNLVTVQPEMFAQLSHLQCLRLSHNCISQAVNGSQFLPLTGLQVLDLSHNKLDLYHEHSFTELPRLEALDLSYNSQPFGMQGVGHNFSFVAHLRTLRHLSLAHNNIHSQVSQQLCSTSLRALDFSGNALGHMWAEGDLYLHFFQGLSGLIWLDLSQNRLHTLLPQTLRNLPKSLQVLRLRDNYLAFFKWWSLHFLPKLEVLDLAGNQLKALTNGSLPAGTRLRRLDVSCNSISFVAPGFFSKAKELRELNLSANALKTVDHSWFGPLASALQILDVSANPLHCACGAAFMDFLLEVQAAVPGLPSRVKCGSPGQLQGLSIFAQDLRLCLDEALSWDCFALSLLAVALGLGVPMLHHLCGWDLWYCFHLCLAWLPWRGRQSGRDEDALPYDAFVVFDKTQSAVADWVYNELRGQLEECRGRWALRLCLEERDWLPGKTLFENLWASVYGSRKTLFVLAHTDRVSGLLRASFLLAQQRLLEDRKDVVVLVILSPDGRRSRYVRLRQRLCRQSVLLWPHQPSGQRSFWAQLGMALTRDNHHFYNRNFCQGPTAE
Assay: TLR9 inhibition reporter assay (HEK-Blue SEAP)
Format: cell-based
Conditions: HEK-Blue cells overexpressing human TLR9, ODN2006 5 nM, 22 hour incubation
In short: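 Agonists used: gardiquimod 7.5 μM (TLR7), R848 15.9 μM (TLR8), ODN2006 5 nM (TLR9), added after 30 min room-temperature compound pre-treatment (0.05 nM–50 μM) of receptor-overexpressing HEK-Blue cells. SEAP reporter (NF-κB/AP-1 driven) read after 22 h at 37 °C; inhibition scaled between agonist+DMSO and reference-inhibitor wells.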

CCC(CC)CN[C@H]1CC[C@@H](n2c(=O)[nH]c3cc(-c4cn5ncnc5c(C)c4C)c(C(C)C)cc32)CC1 [Example 198]
IC50: 2.13 µM

COc1cc(-c2cc3[nH]c(=O)n([C@H]4CC[C@@H](NCC(C)(C)C)CC4)c3cc2C(C)C)cn2ncnc12 [Example 197, 6-isopropyl-5-(8-methoxy-[1,2,4]triazolo[1,5-a]pyridin-6-yl)-1-((1s,4s)-4-(neopentylamino)cyclohexyl)-1,3-dihydro-2H-benzo[d]imidazol-2-one]
IC50: 6.26 µM

COc1cc(-c2cc3[nH]c(=O)n([C@H]4CC[C@H](NC5CCN(C(C)C)CC5)CC4)c3cc2C(C)C)cn2ncnc12 [Example 207, 6-isopropyl-1-((1r,4r)-4-((1-isopropylpiperidin-4-yl)amino)cyclohexyl)-5-(8-methoxy-[1,2,4]triazolo[1,5-a]pyridin-6-yl)-1,3-dihydro-2H-benzo[d]imidazol-2-one]
IC50: 4.63 µM

COc1cc(-c2cc3[nH]c(=O)n([C@@H]4CCCN(CCC(C)(C)C)C4)c3cc2C(C)C)cn2ncnc12 [Example 210, (R)-1-(1-(3,3-dimethylbutyl)piperidin-3-yl)-6-isopropyl-5-(8-methoxy-[1,2,4]triazolo[1,5-a]pyridin-6-yl)-1,3-dihydro-2H-benzo[d]imidazol-2-one]
IC50: 2.36 µM

COc1cc(-c2cc3[nH]c(=O)n(C4CCC(N5CC(O)(C(F)(F)F)C5)CC4)c3cc2C(C)C)cn2ncnc12 (single isomer, unassigned) [Example 241, 1-(4-(3-hydroxy-3-(trifluoromethyl)azetidin-1-yl)cyclohexyl)-6-isopropyl-5-(8-methoxy-[1,2,4]triazolo[1,5-a]pyridin-6-yl)-1,3-dihydro-2H-benzo[d]imidazol-2-one]
IC50: > 50 µM

COCCN1CCC(n2c(=O)[nH]c3cc(-c4cc(OC)c5ncnn5c4)c(C(C)C)cc32)CC1 [Example 223, 6-isopropyl-5-(8-methoxy-[1,2,4]triazolo[1,5-a]pyridin-6-yl)-1-(1-(2-methoxyethyl)piperidin-4-yl)-1,3-dihydro-2H-benzo[d]imidazol-2-one]
IC50: 13.2 µM

CCN1CCC[C@H](n2c(=O)[nH]c3cc(-c4cc(C)c5ncnn5c4)c(C)cc32)C1 [Example 12, (S)-1-(1-ethylpiperidin-3-yl)-6-methyl-5-(8-methyl-[1,2,4]triazolo[1,5-a]pyridin-6-yl)-1,3-dihydro-2H-benzo[d]imidazol-2-one]
IC50: 7.64 µM

COCCN1CCC[C@@H](n2c(=O)[nH]c3cc(-c4cc(OC)c5ncnn5c4)c(C(C)C)cc32)C1 (single isomer, unassigned) [Example 225]
IC50: 33.8 µM

COc1cc(-c2cc3[nH]c(=O)n([C@H]4CC[C@H](N(CC(C)C)CC(C)C)CC4)c3cc2C(C)C)cn2ncnc12 [Example 205, 1-((1r,4r)-4-(diisobutylamino)cyclohexyl)-6-isopropyl-5-(8-methoxy-[1,2,4]triazolo[1,5-a]pyridin-6-yl)-1,3-dihydro-2H-benzo[d]imidazol-2-one]
IC50: 11.6 µM

COc1cc(-c2cc3[nH]c(=O)n([C@H]4CC[C@H](NC5COC5)CC4)c3cc2C(C)C)cn2ncnc12 [Example 201, 6-isopropyl-5-(8-methoxy-[1,2,4]triazolo[1,5-a]pyridin-6-yl)-1-((1r,4r)-4-(oxetan-3-ylamino)cyclohexyl)-1,3-dihydro-2H-benzo[d]imidazol-2-one]
IC50: 22.9 µM

Cc1c(-c2cc3[nH]c(=O)n([C@H]4CC[C@@H](NC5COC5)CC4)c3cc2C(C)C)cn2ncnc2c1C [Example 188, 5-(7,8-dimethyl-[1,2,4]triazolo[1,5-a]pyridin-6-yl)-6-isopropyl-1-((1s,4s)-4-(oxetan-3-ylamino)cyclohexyl)-1,3-dihydro-2H-benzo[d]imidazol-2-one]
IC50: 22.2 µM

Cc1c(-c2cc3[nH]c(=O)n([C@H]4CC[C@@H](N(C)C)CC4)c3cc2C(C)C)cn2ncnc2c1C [Example 185, 5-(7,8-dimethyl-[1,2,4]triazolo[1,5-a]pyridin-6-yl)-1-((1s,4s)-4-(dimethylamino)cyclohexyl)-6-isopropyl-1,3-dihydro-2H-benzo[d]imidazol-2-one]
IC50: 7.07 µM

Cc1cc2c(cc1-c1cc(C)c3ncnn3c1)[nH]c(=O)n2[C@H]1CCCN(C2COC2)C1 [Example 14, (S)-6-methyl-5-(8-methyl-[1,2,4]triazolo[1,5-a]pyridin-6-yl)-1-(1-(oxetan-3-yl)piperidin-3-yl)-1,3-dihydro-2H-benzo[d]imidazol-2-one]
IC50: > 50 µM

COCCN1CCC[C@@H](n2c(=O)[nH]c3cc(-c4cc(OC)c5ncnn5c4)c(C(C)C)cc32)C1 [Example 226, (R)-6-isopropyl-5-(8-methoxy-[1,2,4]triazolo[1,5-a]pyridin-6-yl)-1-(1-(2-methoxyethyl)piperidin-3-yl)-1,3-dihydro-2H-benzo[d]imidazol-2-one]
IC50: 14.2 µM

Cc1cc2c(cc1-c1cc(C)c3ncnn3c1)[nH]c(=O)n2[C@@H]1CCCN(C)C1 [Example 15, (R)-6-methyl-5-(8-methyl-[1,2,4]triazolo[1,5-a]pyridin-6-yl)-1-(1-methylpiperidin-3-yl)-1,3-dihydro-2H-benzo[d]imidazol-2-one]
IC50: 5.94 µM

COc1cc(-c2cc3[nH]c(=O)n(C4CCC(N5CCCC5)CC4)c3cc2C(C)C)cn2ncnc12 (stereo not drawn) [Example 232, 6-isopropyl-5-(8-methoxy-[1,2,4]triazolo[1,5-a]pyridin-6-yl)-1-(4-(pyrrolidin-1-yl)cyclohexyl)-1,3-dihydro-2H-benzo[d]imidazol-2-one]
IC50: 7.78 µM

CCc1cc2c(cc1-c1cc(OC)c3ncnn3c1)[nH]c(=O)n2[C@@H]1CCCN(C2CCOC2)C1 (stereo partly drawn) [Example 212, 6-ethyl-5-(8-methoxy-[1,2,4]triazolo[1,5-a]pyridin-6-yl)-1-((3R)-1-(tetrahydrofuran-3-yl)piperidin-3-yl)-1,3-dihydro-2H-benzo[d]imidazol-2-one]
IC50: > 50 µM

CCc1cc2c(cc1-c1cc(OC)c3ncnn3c1)[nH]c(=O)n2[C@@H]1CCCN(CCC(C)(C)C)C1 [Example 208, (R)-1-(1-(3,3-dimethylbutyl)piperidin-3-yl)-6-ethyl-5-(8-methoxy-[1,2,4]triazolo[1,5-a]pyridin-6-yl)-1,3-dihydro-2H-benzo[d]imidazol-2-one]
IC50: 3.32 µM

COCCN1CCC[C@H](n2c(=O)[nH]c3cc(-c4cc(OC)c5ncnn5c4)c(C(C)C)cc32)C1 [Example 221, (S)-6-isopropyl-5-(8-methoxy-[1,2,4]triazolo[1,5-a]pyridin-6-yl)-1-(1-(2-methoxyethyl)piperidin-3-yl)-1,3-dihydro-2H-benzo[d]imidazol-2-one]
IC50: 20.6 µM

COc1c(C)c(-c2cc3[nH]c(=O)n(C4CCC(N5CCC(F)(F)CC5)CC4)c3cc2C(C)C)cn2ncnc12 (single isomer, unassigned) [Example 229, 1-(4-(4,4-difluoropiperidin-1-yl)cyclohexyl)-6-isopropyl-5-(8-methoxy-7-methyl-[1,2,4]triazolo[1,5-a]pyridin-6-yl)-1,3-dihydro-2H-benzo[d]imidazol-2-one]
IC50: 30 µM

CCc1cc2c(cc1-c1cc(OC)c3ncnn3c1)[nH]c(=O)n2[C@@H]1CCCN(CC)C1 [Example 171, (R)-6-ethyl-1-(1-ethylpiperidin-3-yl)-5-(8-methoxy-[1,2,4]triazolo[1,5-a]pyridin-6-yl)-1,3-dihydro-2H-benzo[d]imidazol-2-one]
IC50: 10.7 µM

CCc1cc2c(cc1-c1cc(OC)c3ncnn3c1)[nH]c(=O)n2[C@@H]1CCCN(CC(C)C)C1 [Example 177, (R)-6-ethyl-1-(1-isobutylpiperidin-3-yl)-5-(8-methoxy-[1,2,4]triazolo[1,5-a]pyridin-6-yl)-1,3-dihydro-2H-benzo[d]imidazol-2-one]
IC50: 10.7 µM

CCc1cc2c(cc1-c1cc(OC)c3ncnn3c1)[nH]c(=O)n2[C@@H]1CCCN(C2COC2)C1 [Example 173, (R)-6-ethyl-5-(8-methoxy-[1,2,4]triazolo[1,5-a]pyridin-6-yl)-1-(1-(oxetan-3-yl)piperidin-3-yl)-1,3-dihydro-2H-benzo[d]imidazol-2-one]
IC50: > 50 µM

COc1c(C)c(-c2cc3[nH]c(=O)n(C4CCC(N5CCC(F)(F)CC5)CC4)c3cc2C(C)C)cn2ncnc12 (single isomer, unassigned) [Example 230, 1-(4-(4,4-difluoropiperidin-1-yl)cyclohexyl)-6-isopropyl-5-(8-methoxy-7-methyl-[1,2,4]triazolo[1,5-a]pyridin-6-yl)-1,3-dihydro-2H-benzo[d]imidazol-2-one]
IC50: > 50 µM
